Patent US20230017045A1, “PYRIDINE AND PYRIMIDINE CARBOXYLATE HERBICIDES AND METHODS OF USE THEREOF” (Dow AgroSciences LLC, priority 2017, published 2023)
Where two headings read alike, the source gives them in different places.

Test system: test plant species
Assay: Post-emergent herbicidal activity test (greenhouse, foliar spray, visual growth reduction)
Format: in vivo
Details: post-emergence, 336 h, 140 g ai/ha
Outline: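 Greenhouse plants at first–second true leaf stage sprayed overhead at 187 L/ha with compound in acetone/water/isopropanol/DMSO/crop oil/X-77 carrier; controls received solvent blank. Injury rated visually after 14 d on a 0–100% scale versus untreated and control plants, converted to growth reduction.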

[1] = ECHCG: barnyardgrass (Echinochloa crus-galli), 14 days after application, read-out: Visual Growth Reduction (%) 14 Days After Application, ECHCG
[2] = IPOHE: ivy-leaf morning glory (Ipomoea hederacea), 14 days after application, read-out: Visual Growth Reduction (%) 14 Days After Application, IPOHE
[3] = KCHSC: kochia (Bassia scoparia), 14 days after application, read-out: Visual Growth Reduction (%) 14 Days After Application, KCHSC
[4] = ORYSA: rice (Oryza sativa), 14 days after application, read-out: Visual Growth Reduction (%) 14 Days After Application, ORYSA
[5] = SETFA: giant foxtail (Setaria faberi), 14 days after application, read-out: Visual Growth Reduction (%) 14 Days After Application, SETFA
[6] = SORVU: grain sorghum (Sorghum vulgare), 14 days after application, read-out: Visual Growth Reduction (%) 14 Days After Application, SORVU
[7] = STEME: common chickweed (Stellaria media), 14 days after application, read-out: Visual Growth Reduction (%) 14 Days After Application, STEME
[8] = TRZAS: wheat, spring (Triticum aestivum), 14 days after application, read-out: Visual Growth Reduction (%) 14 Days After Application, TRZAS
[9] = blackgrass (Alopecurus myosuroides), 14 Days After Application, read-out: Visual Growth Reduction (%) ALOMY
[10] = canada thistle (Cirsium arvense), 14 Days After Application, read-out: Visual Growth Reduction (%) CIRAR
[11] = crabgrass (Digitaria sanguinalis), 14 Days After Application, read-out: Visual Growth Reduction (%) DIGSA
[12] = lambsquarters (Chenopodium album), 14 Days After Application, read-out: Visual Growth Reduction (%) CHEAL
[13] = redroot pigweed (Amaranthus retroflexus), 14 Days After Application, read-out: Visual Growth Reduction (%) AMARE
[14] = wild oat (Avena fatua), 14 Days After Application, read-out: Visual Growth Reduction (%) AVEFA
[15] = yellow nutsedge (Cyperus esculentus), 14 Days After Application, read-out: Visual Growth Reduction (%) CYPES

Structure (SMILES)	pest or weed control at 140 g/ha [1] [%]	pest or weed control at 140 g/ha [2] [%]	pest or weed control at 140 g/ha [3] [%]	pest or weed control at 140 g/ha [4] [%]	pest or weed control at 140 g/ha [5] [%]	pest or weed control at 140 g/ha [6] [%]	pest or weed control at 140 g/ha [7] [%]	pest or weed control at 140 g/ha [8] [%]	pest or weed control at 140 g/ha [9] [%]	pest or weed control at 140 g/ha [10] [%]	pest or weed control at 140 g/ha [11] [%]	pest or weed control at 140 g/ha [12] [%]	pest or weed control at 140 g/ha [13] [%]	pest or weed control at 140 g/ha [14] [%]	pest or weed control at 140 g/ha [15] [%]
COC(=O)c1nc(-c2ccc3c(c2F)OC(F)(F)O3)c(F)cc1Cl [F229, Methyl 3-chloro-5-fluoro-6-(2,2,4-trifluorobenzo[d][1,3]dioxol-5-yl)picolinate]	85 to 94	95 to 100	95 to 100	0 to 29	85 to 94	95 to 100	45 to 59	85 to 94	85 to 94	95 to 100	95 to 100	95 to 100	95 to 100	95 to 100	45 to 59
COc1c(-c2nc(C(=O)O)c(Cl)cc2F)ccc(C(F)F)c1F [F230, 3-Chloro-6-(4-(difluoromethyl)-3-fluoro-2-methoxyphenyl)-5-fluoropicolinic acid]	60 to 74	95 to 100	95 to 100	0 to 29	30 to 44	60 to 74	0 to 29	0 to 29	0 to 29	95 to 100	0 to 29	95 to 100	95 to 100	0 to 29	0 to 29
COC(=O)c1nc(-c2cc(OC)c3c(c2)OCO3)c(F)cc1Cl [F231, Methyl 3-chloro-5-fluoro-6-(7-methoxybenzo[d] [1,3]dioxol-5-yl)picolinate]	0 to 29	0 to 29	0 to 29	0 to 29	0 to 29	0 to 29	0 to 29	0 to 29	0 to 29	0 to 29	0 to 29	0 to 29	0 to 29	0 to 29	0 to 29
COC(=O)c1nc(-c2cc3c(cc2Cl)OC(F)(F)O3)ncc1Cl [F232, Methyl 5-chloro-2-(6-chloro-2,2-difluorobenzo[d][1,3]dioxol-5-yl)pyrimidine-4-carboxylate]	75 to 84	95 to 100	45 to 59	0 to 29	75 to 84	85 to 94	45 to 59	45 to 59	0 to 29	85 to 94	95 to 100	95 to 100	60 to 74	0 to 29	0 to 29
COC(=O)c1nc(-c2ccc3c(c2C)OC(F)(F)O3)c(F)cc1Cl [F233, Methyl 3-chloro-6-(2,2-difluoro-4-methylbenzo[d][1,3]dioxol-5-yl)-5-fluoropicolinate]	45 to 59	95 to 100	85 to 94	0 to 29	85 to 94	85 to 94	45 to 59	60 to 74	75 to 84	95 to 100	95 to 100	95 to 100	95 to 100	45 to 59	45 to 59
COC(=O)c1nc(-c2ccc(F)c3c2OC(F)(F)O3)c(F)cc1Cl [F234, Methyl 3-chloro-5-fluoro-6-(2,2,7-trifluorobenzo[d][1,3]dioxol-4-yl)picolinate]	0 to 29	60 to 74	0 to 29	0 to 29	0 to 29	0 to 29	0 to 29	0 to 29	0 to 29	0 to 29	30 to 44	30 to 44	0 to 29	0 to 29	0 to 29
COC(=O)c1nc(-c2ccc3c(c2OC)OC(F)(F)O3)c(F)cc1Cl [F235, Methyl 3-chloro-6-(2,2-difluoro-4-methoxybenzo[d][1,3]dioxol-5-yl)-5-fluoropicolinate]	95 to 100	95 to 100	95 to 100	45 to 59	95 to 100	95 to 100	85 to 94	95 to 100	60 to 74	95 to 100	95 to 100	95 to 100	95 to 100	95 to 100	0 to 29
COC(=O)c1nc(-c2ccc(C3(C#N)CC3)cc2Cl)ccc1Cl [F236, Methyl 3-chloro-6-(2-chloro-4-(1-cyanocyclopropyl)phenyl)picolinate]	0 to 29	95 to 100	75 to 84	0 to 29	75 to 84	75 to 84	45 to 59	0 to 29	0 to 29	85 to 94	75 to 84	85 to 94	30 to 44	0 to 29	0 to 29
COC(=O)c1nc(-c2ccc(C3(C#N)CC3)cc2Cl)c(F)cc1Cl [F237, Methyl 3-chloro-6-(2-chloro-4-(1-cyanocyclopropyl)phenyl)-5-fluoropicolinate]	30 to 44	95 to 100	85 to 94	0 to 29	75 to 84	85 to 94	30 to 44	45 to 59	0 to 29	95 to 100	85 to 94	85 to 94	95 to 100	45 to 59	45 to 59
COC(=O)c1nc(-c2ccc(C3(C#N)CC3)cc2Cl)c(Cl)cc1Cl [F238, Methyl 3,5-dichloro-6-(2-chloro-4-(1-cyanocyclopropyl)phenyl)picolinate]	0 to 29	75 to 84	0 to 29	0 to 29	45 to 59	60 to 74	0 to 29	0 to 29	0 to 29	60 to 74	60 to 74	95 to 100	45 to 59	0 to 29	0 to 29
C#Cc1cc(C(F)(F)F)cc(Cl)c1-c1ccc(Cl)c(C(=O)OC)n1 [F239, methyl 3-chloro-6-(2-chloro-6-ethynyl-4-(trifluoromethyl)phenyl)picolinate]	0 to 29	75 to 84	0 to 29	0 to 29	0 to 29	60 to 74	0 to 29	0 to 29	0 to 29	0 to 29	0 to 29	30 to 44	0 to 29	0 to 29	0 to 29
